# Experimental data reported in publication PMC10394516, “The pharmacokinetic profile of brensocatib and its effect on pharmacodynamic biomarkers including NE, PR3, and CatG in various rodent species” (Frontiers in Pharmacology, 2023).
# Key:
# NE [1] = system: NE; parameters: method as in Chalmers et al., 2020; details: Phase 2 trial in NCFBE (WILLOW, NCT03218917), vs placebo; ref Chalmers et al., 2020; cited from earlier work
# NSPs (NE, PR3, CatG) = experiment: PD onset study, bone marrow NSP activities (all three NSPs), C57BL/6 mice; assay type: in vivo; details: 5 mg/kg BID
# Method: A 14-day PD onset study was performed in female C57BL/6 mice dosed BID. Mice were dosed by oral gavage either with vehicle (0 mg/kg) or 5 mg/kg brensocatib (BID; 10 mg/kg/day) for 1, 4, 7, 10, or 14 consecutive days. Plasma was collected from animals during the first 24 h of dosing at 1, 2, 8, 9, 10, and 24 h post the initial dose. Note the 8- and 24-h plasma samples were prior to the afternoon dose and the second day dose (if applicable), respectively. Plasma was used for PK analysis via LC-MS/MS. […]
# Bone marrow lysates prepared as described above were diluted and plated onto 96-well assay plates to quantify NSP activities as described previously ([Basso et al., 2022]). Briefly, peptide substrates for NE (N-Methoxysuccinyl-Ala-Ala-Pro-Val-7-amido-4-methylcoumarin; Sigma; St. Louis, MO; Excitation/Emission at 350/450 nm), PR3 ((7-Methoxycoumarin-4-yl)acetyl-lysyl-(picolinoyl)-Tyr-Asp-Ala-Lys-Gly-Asp-N-3-(2-4-dinitrophenyl)-2-3-diaminopropyonyl-NH2); GenScript; Piscataway, NJ; Excitation/Emission at 340/430 nm), and CatG (N-Succinyl-Ala-Ala-Pro-Phe p nitroanilide; Sigma; Absorbance at 405 nm) were added at a final assay concentration of 100 μM, 40 μM, and 200 μM, respectively, and either fluorescence or absorbance was quantified using a Synergy microplate reader (BioTek; Winooski, VT). […]
# [2] = parameters: method as in Chalmers et al., 2020; details: Phase 2 trial in NCFBE (WILLOW, NCT03218917), compared to placebo; ref Chalmers et al., 2020; cited from earlier work
# PR3 = experiment: Bone marrow PR3 activity after repeated dosing, Wistar rats; assay type: in vivo; details: for Reduction of PR3 activity vs vehicle / Change From Vehicle Control (%) PR3: 7 days
# Method: (§1) Briefly, animals were weighed and randomized into different treatment groups. In total, three different dosing levels of brensocatib were tested in each species and strain; each QD dosing level was equivalent to 1.5-times the matching daily BID dose. For BID dosing, the second daily dose was administered 8-h post the morning dose. C57BL/6 mice were dosed either BID or QD for 7 consecutive days at 0/0, 0.5/0.75, 2/3, and 20/30 mg/kg/day (BID/QD). BALB/c mice were dosed for 7 consecutive days at 0/0, 0.2/0.3, 2/3, and 20/30 mg/kg/day (BID/QD). SD rats were dosed for 9 consecutive days at 0/0, 0.2/0.3, 2/3, and 20/30 mg/kg/day (BID/QD). Wistar rats were dosed for 7 consecutive days at 0/0, 0.2/0.3, 2/3, and 20/30 mg/kg/day (BID/QD).
# (§2) At the completion of the study, animals were sacrificed 16–24 h post their final dose. The hind limb bones (femurs and tibias) were collected at necropsy for bone marrow analysis of NSP activities by kinetic enzymatic assays ([Basso et al., 2022]). See section Quantification of Bone Marrow NSP Activities for details.
# (§3) For the mice, each animal had the femurs and tibias of both hind limbs harvested. For the rat, the femur and tibia from a single hind limb per animal was harvested. Bones were kept on wet ice until processing for bone marrow collection. In brief, bone cutters were used to cut the epiphysis (knobby ends) off the long bones to expose the bone marrow filled cavity. Each bone cavity was then flushed with 5 mL/bone (mouse) or 10 mL/bone (rat) of ice-cold RPMI media through a […] and collected in a 50-mL conical tube. Cells were spun down at 2,500 × g at 4°C for 5 min and the supernatant was aspirated. After which, bone marrow cells were lysed with 1X red blood cell (RBC) lysis buffer (Abcam, ab204733) to eliminate contaminating RBCs and washed with PBS to remove any residual RBC lysis buffer. The resulting white blood cells (WBC) were subsequently lysed with 1% (v/v) Triton X-100 in PBS. Lysates were added to 96-well plates and stored at −80°C until NSP analyses.
# (§4) Bone marrow lysates prepared as described above were diluted and plated onto 96-well assay plates to quantify NSP activities as described previously ([Basso et al., 2022]). Briefly, peptide substrates for NE (N-Methoxysuccinyl-Ala-Ala-Pro-Val-7-amido-4-methylcoumarin; Sigma; St. Louis, MO; Excitation/Emission at 350/450 nm), PR3 ((7-Methoxycoumarin-4-yl)acetyl-lysyl-(picolinoyl)-Tyr-Asp-Ala-Lys-Gly-Asp-N-3-(2-4-dinitrophenyl)-2-3-diaminopropyonyl-NH2); GenScript; Piscataway, NJ; Excitation/Emission at 340/430 nm), and CatG (N-Succinyl-Ala-Ala-Pro-Phe p nitroanilide; Sigma; Absorbance at 405 nm) were added at a final assay concentration of 100 μM, 40 μM, and 200 μM, respectively, and either fluorescence or absorbance was quantified using a Synergy microplate reader (BioTek; Winooski, VT). The specific NSP activity in each sample was calculated as the total activity minus the activity in the presence of a specific NSP inhibitor (if used), including elastase inhibitor (Abcam) for NE, sivelestat (Abcam) for PR3, and cathepsin G inhibitor I (Cayman Chemical; Ann Arbor, MI) for CatG. NSP concentrations were interpolated based on their activities relative to the standard curves created using active human NE protein (Sigma), active human PR3 protein (Sigma), and active human CatG protein (Sigma), respectively. Due to unavailability of commercial mouse and/or rat NE, PR3, and CatG proteins, the corresponding human proteins were used instead since their catalytic ability is considered to be conserved across species. A portion of each cell lysate sample was retained for protein quantification using a Pierce™ BCA Protein Assay Kit (Thermo Fisher). The NSP activities were normalized for the cell lysate protein concentrations.
# (§5) The Pierce™ BCA Protein Assay Kit was used to measure the total protein of the samples after lysis to allow for subsequent normalization. […]
# CatG = experiment: PD onset study, bone marrow CatG activity, C57BL/6 mice; assay type: in vivo; details: for Percent change from vehicle CatG: bone marrow, 5 mg/kg BID oral
# Method: A 14-day PD onset study was performed in female C57BL/6 mice dosed BID. Mice were dosed by oral gavage either with vehicle (0 mg/kg) or 5 mg/kg brensocatib (BID; 10 mg/kg/day) for 1, 4, 7, 10, or 14 consecutive days. Plasma was collected from animals during the first 24 h of dosing at 1, 2, 8, 9, 10, and 24 h post the initial dose. Note the 8- and 24-h plasma samples were prior to the afternoon dose and the second day dose (if applicable), respectively. Plasma was used for PK analysis via LC-MS/MS. On prescribed days, animals were sacrificed 16 h post final dose, and the hind bones (femurs and tibias) were collected at necropsy for bone marrow analysis of NSP activities by kinetic enzymatic assays.
# as §3, §4
# The Pierce™ BCA Protein Assay Kit was used to measure the total protein of the samples after lysis to allow for subsequent normalization. The manufacturer’s instructions for use were followed when performing this assay on a portion of the sample lysates which were diluted in PBS, the same diluent as used for preparation of the standard. Plates were read on the Biotek Synergy plate reader with Gen5 software.
# NE [3] = experiment: Bone marrow NE activity after repeated dosing, C57BL/6 mice; assay type: in vivo; details: 7 days
# Method: as §1, §2, §3, §4, §5
# [4] = BID highest dose (20 mg/kg/day)
# [5] = 5 mg/kg BID, curve fit with free min and max
smiles,measurement,setting,value
Cn1c(=O)oc2ccc(-c3ccc(C[C@@H](C#N)NC(=O)[C@@H]4CNCCCO4)cc3)cc21 [brensocatib],sputum NE activity,NE [1],dose-dependent reduction
same,Time to maximum reduction in NSP activities (observed),"NSPs (NE, PR3, CatG); visually observed",~7 days
same,Time to maximum reduction in NSP activities (with modeling),"NSPs (NE, PR3, CatG); with modeling",~8 days
same,time to first exacerbation,[2],prolonged
same,Reduction of PR3 activity vs vehicle,PR3; [4],46%
same,Reduction of PR3 activity vs vehicle,PR3; QD highest dose (30 mg/kg/day),59%
same,"Combined BID and QD percent reduction, PR3",PR3; highest dose level 20/30 (BID/QD) mg/kg/day,53%
same,Change From Vehicle Control (%) PR3,PR3; oral BID 0.2 mg/kg/day,+10% (p = 0.9848)
same,Change From Vehicle Control (%) PR3,PR3; oral BID 2 mg/kg/day,+22% (p = 0.8768)
same,Change From Vehicle Control (%) PR3,PR3; oral BID 20 mg/kg/day,−46% (p = 0.4135)
same,Change From Vehicle Control (%) PR3,PR3; oral QD 0.3 mg/kg/day,+6% (p = 0.9963)
same,Change From Vehicle Control (%) PR3,PR3; oral QD 3 mg/kg/day,−35% (p = 0.5635)
same,Change From Vehicle Control (%) PR3,PR3; oral QD 30 mg/kg/day,−59% (p = 0.1437)
same,"Onset: Maximum reduction (plateau), CatG",CatG; [5],97%
same,"Onset: Time to reach 50% reduction, CatG",CatG; [5],2.8 days
same,"Onset: Time to reach max reduction, CatG",CatG; [5],8.1 days
same,Percent change from vehicle CatG,CatG; after 1 day of treatment,−26% (0.0727)
same,Percent change from vehicle CatG,CatG; after 4 days of treatment,−81% (p < 0.0001)
same,Percent change from vehicle CatG,CatG; after 7 days of treatment,−99% (p < 0.0001)
same,Percent change from vehicle CatG,CatG; after 10 days of treatment,−93% (p < 0.0001)
same,Percent change from vehicle CatG,CatG; after 14 days of treatment,−99% (p < 0.0001)
same,Reduction of NE activity vs vehicle,NE [3]; [4],85%
same,Reduction of NE activity vs vehicle,NE [3]; QD highest dose (30 mg/kg/day),71%
same,Change From Vehicle Control (%) NE,"NE [3]; oral BID 0.5 mg/kg/day, 16 h post final dose",−20% (p = 0.1494)
same,Change From Vehicle Control (%) NE,"NE [3]; oral BID 2 mg/kg/day, 16 h post final dose",−71% (p < 0.0001)
same,Change From Vehicle Control (%) NE,"NE [3]; oral BID 20 mg/kg/day, 16 h post final dose",−85% (p < 0.0001)
same,Change From Vehicle Control (%) NE,"NE [3]; oral QD 0.75 mg/kg/day, 24 h post final dose",−9% (p = 0.8092)
same,Change From Vehicle Control (%) NE,"NE [3]; oral QD 3 mg/kg/day, 24 h post final dose",−55% (p < 0.0001)
same,Change From Vehicle Control (%) NE,"NE [3]; oral QD 30 mg/kg/day, 24 h post final dose",−71% (p < 0.0001)
